From patent publication US20260199483A1 (Bright Angel Therapeutics Inc., priority 2022, published 2026)
≈ marks a conversion by molar mass, not a printed value.

Key:
[1] = Mammalian cell toxicity (Cell Titer-Glo); type: cell-based; conditions: human; HepG2 cells, 48 h incubation, Cell Titer-Glo luminescence
Experimental: HepG2 cells were seeded overnight at 500 cells/well in 384-well plate, then incubated with compounds (10-point concentration titration) for 48 h. Cell Titer-Glo® reagent ([…]) was added to each well and after 10-minute incubation at room temperature the luminescent signal was measured using an Envision plate reader (Perkin Elmer).

[2] = target: T1, purified recombinant Yck2 (Candida albicans, UniProt A0A1D8PKB4); assay: HotSpot kinase assay; type: biochemical, C. albicans
T1 construct: Yck2 residues 37-345 were PCR amplified from C. albicans genomic DNA; His6 (N); TEV protease site (N); made in house; host or cells: E. coli BL21(DE3)-Gold
T1 sequence (A0A1D8PKB4 entry or part of it): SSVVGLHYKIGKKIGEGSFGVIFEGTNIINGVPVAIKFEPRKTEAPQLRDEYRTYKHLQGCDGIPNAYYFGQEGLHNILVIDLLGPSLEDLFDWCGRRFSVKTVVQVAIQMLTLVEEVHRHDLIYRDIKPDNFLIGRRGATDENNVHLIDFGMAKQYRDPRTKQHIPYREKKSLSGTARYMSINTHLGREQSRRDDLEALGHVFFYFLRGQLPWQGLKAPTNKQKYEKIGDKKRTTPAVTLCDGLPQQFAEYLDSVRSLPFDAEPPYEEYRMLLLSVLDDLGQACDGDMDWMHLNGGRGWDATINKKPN
Experimental: IC50s were determined using the in vitro HotSpot kinase assay (purified enzymes, ^33P-ATP, an appropriate substrate and 1 μM ATP). For enzyme inhibition assays, compounds were tested in range of ten concentrations from 10 uM to 0.0005 uM using purified recombinant Yck2. Reaction conditions were 1 uM ATP, one hour incubation with inhibitor, and kinase activity detected using 33-ATP phosphorylation of an appropriately selected peptide substrate.
Yck2 residues 37-345 were PCR amplified from C. albicans genomic DNA and subcloned into the vector pMCSG53, which codes for a N-terminal His6 tag, TEV protease site, followed by the Yck2 protein. E. coli BL21(DE3)-Gold competent cells were transformed with this plasmid and the Yck2 protein was purified using methodology previously described (Stogios et al., ACS Chem. Biol. 13, 1322-1332 (2018)).

CaCi2 = assay: Antifungal sensitivity testing (broth microdilution MIC); type: cell-based; conditions: CaCi2, 96-well broth microdilution, compounds in DMSO
Experimental: Minimum inhibitory concentrations (MICs) were determined in flat bottom, 96-well plate format using a modified broth microdilution protocol as previously described (Singh et al., PLoS Pathog. 5, e1000532 (2009); LaFayette et al., PLoS Pathog. 6, 79-80 (2010)). Compounds were formulated in dimethyl sulfoxide (DMSO, Sigma-Aldrich Co.). Each compound was tested in duplicate in at least two independent experiments.

Row | Compound | IC50 at 48 h [1] | IC50 [2] | MIC50 (CaCi2)
1 | Fc1ccc(-c2nn3cc(CNC[C@H]4CO[C@](Cn5cncn5)(c5ccc(F)cc5F)C4)ccc3c2-c2ccncc2)cc1 (stereo in doubt) [Compound I-256, 1-(trans-5-((1H-1,2,4-triazol-1-yl)methyl)-5-(2,4-difluorophenyl)tetrahydrofuran-3-yl)-N-((2-(4-fluorophenyl)-3-(pyridin-4-yl)pyrazolo[1,5-a]pyridin-6-yl)methyl)methanamine] | 11.8 µM |  | 
2 | Nc1nccc(-c2c(-c3ccc(F)cc3)ncn2C2CCN(CCCC(O)(Cn3cncn3)c3ccc(F)cc3F)CC2)n1 (centres unmarked) [Compound I-58, 5-(4-(5-(2-aminopyrimidin-4-yl)-4-(4-fluorophenyl)-1H-imidazol-1-yl)piperidin-1-yl)-2-(2,4-difluorophenyl)-1-(1H-1,2,4-triazol-1-yl)pentan-2-ol] |  | 3.19 nM | > 25 µM
3 | Cn1cc(-c2ccncc2COC2CCN(CC(O)(Cn3cncn3)c3ccc(F)cc3F)CC2)c(-c2ccc(F)cc2)n1 (centres unmarked) [Compound I-90, 2-(2,4-difluorophenyl)-1-(4-((4-(3-(4-fluorophenyl)-1-methyl-1H-pyrazol-4-yl)pyridin-3-yl)methoxy)piperidin-1-yl)-3-(1H-1,2,4-triazol-1-yl)propan-2-ol] |  | 47.6 nM | 0.586 µM (≈ 0.354 µg/mL)
4 | O=C(NC1CCN(CC(O)(Cn2cncn2)c2ccc(F)cc2F)CC1)c1ccc2c(-c3ccncc3)c(-c3ccc(F)cc3)nn2c1 (centres unmarked) [Compound I-100, N-(1-(2-(2,4-difluorophenyl)-2-hydroxy-3-(1H-1,2,4-triazol-1-yl)propyl)piperidin-4-yl)-2-(4-fluorophenyl)-3-(pyridin-4-yl)pyrazolo[1,5-a]pyridine-6-carboxamide] |  | 32.9 nM | 0.0651 µM (≈ 0.0425 µg/mL)
5 | O=C(NC[C@](O)(Cn1cncn1)c1ccc(F)cc1F)c1ccc2c(-c3ccncc3)c(-c3ccc(F)cc3)nn2c1 [Compound I-116, (S)-N-(2-(2,4-difluorophenyl)-2-hydroxy-3-(1H-1,2,4-triazol-1-yl)propyl)-2-(4-fluorophenyl)-3-(pyridin-4-yl)pyrazolo[1,5-a]pyridine-6-carboxamide] |  | 7.91 nM | 6.25 µM (≈ 3.56 µg/mL)
6 | O=C(NC[C@@](O)(Cn1cncn1)c1ccc(F)cc1F)c1ccc2c(-c3ccncc3)c(-c3ccc(F)cc3)nn2c1 [Compound I-117, (R)-N-(2-(2,4-difluorophenyl)-2-hydroxy-3-(1H-1,2,4-triazol-1-yl)propyl)-2-(4-fluorophenyl)-3-(pyridin-4-yl)pyrazolo[1,5-a]pyridine-6-carboxamide] |  | 5.08 nM | 0.195 µM (≈ 0.111 µg/mL)
7 | OC(COc1cccc2c(-c3ccncc3)c(-c3ccc(F)cc3)nn12)(Cn1cncn1)c1ccc(F)cc1F (centres unmarked) [Compound I-139, 2-(2,4-difluorophenyl)-1-((2-(4-fluorophenyl)-3-(pyridin-4-yl)pyrazolo[1,5-a]pyridin-7-yl)oxy)-3-(1H-1,2,4-triazol-1-yl)propan-2-ol] | > 20 µM |  | 
8 | O=C(NCC1CCN(CC(O)(Cn2cncn2)c2ccc(F)cc2F)CC1)c1ccc2c(-c3ccncc3)c(-c3ccc(F)cc3)nn2c1 (centres unmarked) [Compound I-147, N-((1-(2-(2,4-difluorophenyl)-2-hydroxy-3-(1H-1,2,4-triazol-1-yl)propyl)piperidin-4-yl)methyl)-2-(4-fluorophenyl)-3-(pyridin-4-yl)pyrazolo[1,5-a]pyridine-6-carboxamide] |  | 36.8 nM | 0.0977 µM (≈ 0.0651 µg/mL)
9 | O=C(NCCC(O)(Cn1cncn1)c1ccc(F)cc1F)c1ccc2c(-c3ccncc3)c(-c3ccc(F)cc3)nn2c1 (centres unmarked) [Compound I-148, N-(3-(2,4-difluorophenyl)-3-hydroxy-4-(1H-1,2,4-triazol-1-yl)butyl)-2-(4-fluorophenyl)-3-(pyridin-4-yl)pyrazolo[1,5-a]pyridine-6-carboxamide] |  | 1.61 nM | 6.25 µM (≈ 3.65 µg/mL)
10 | OC(CN1CCC(Oc2cccc3c(-c4ccncc4)c(-c4ccc(F)cc4)nn23)CC1)(Cn1cncn1)c1ccc(F)cc1F (centres unmarked) [Compound I-154, 2-(2,4-difluorophenyl)-1-(4-((2-(4-fluorophenyl)-3-(pyridin-4-yl)pyrazolo[1,5-a]pyridin-7-yl)oxy)piperidin-1-yl)-3-(1H-1,2,4-triazol-1-yl)propan-2-ol] |  | 176 nM | 0.195 µM (≈ 0.122 µg/mL)
11 | Nc1nccc(-c2c(-c3ccc(F)cc3)ncn2C2CCN(C3CCN(CC(O)(Cn4cncn4)c4ccc(F)cc4F)CC3)CC2)n1 (centres unmarked) [Compound I-224] |  | 72.3 nM | 25 µM (≈ 16.5 µg/mL)
12 | Cn1cc(-c2ccnc3c2C(=O)N(CC2CCN(CC(O)(Cn4cncn4)c4ccc(F)cc4F)CC2)C3)c(-c2ccc(F)cc2)n1 (centres unmarked) [Compound I-230, 6-((1-(2-(2,4-difluorophenyl)-2-hydroxy-3-(1H-1,2,4-triazol-1-yl)propyl)piperidin-4-yl)methyl)-4-(3-(4-fluorophenyl)-1-methyl-1H-pyrazol-4-yl)-6,7-dihydro-5H-pyrrolo[3,4-b]pyridin-5-one] |  | 2.93 nM | 1.88 µM (≈ 1.21 µg/mL)
13 | Nc1nccc(-c2c(-c3ccc(F)cc3)ncn2C2CCN(CCCn3c4c(c5cc(Cl)ccc53)CCNC4)CC2)n1 [Compound I-232, 4-(1-(1-(3-(6-chloro-1,2,3,4-tetrahydro-9H-pyrido[3,4-b]indol-9-yl)propyl)piperidin-4-yl)-4-(4-fluorophenyl)-1H-imidazol-5-yl)pyrimidin-2-amine] |  | 2.61 nM | > 25 µM
14 | Cn1cc(-c2ccncc2COCC[C@@](O)(Cn2cncn2)c2ccc(F)cc2F)c(-c2ccc(F)cc2)n1 [Compound I-236, (S)-2-(2,4-difluorophenyl)-4-((4-(3-(4-fluorophenyl)-1-methyl-1H-pyrazol-4-yl)pyridin-3-yl)methoxy)-1-(1H-1,2,4-triazol-1-yl)butan-2-ol] |  | 169 nM | 2.34 µM (≈ 1.25 µg/mL)
15 | Cn1cc(-c2ccnc3c2C(=O)N(CC2CCN(C[C@](O)(Cn4cncn4)c4ccc(F)cc4F)CC2)C3)c(-c2ccc(F)cc2)n1 [Compound I-238, (S)-6-((1-(2-(2,4-difluorophenyl)-2-hydroxy-3-(1H-1,2,4-triazol-1-yl)propyl)piperidin-4-yl)methyl)-4-(3-(4-fluorophenyl)-1-methyl-1H-pyrazol-4-yl)-6,7-dihydro-5H-pyrrolo[3,4-b]pyridin-5-one] |  | 7.84 nM | 0.781 µM (≈ 0.502 µg/mL)
16 | Cn1cc(-c2ccncc2COC(=O)NC2CCN(CC(O)(Cn3cncn3)c3ccc(F)cc3F)CC2)c(-c2ccc(F)cc2)n1 (centres unmarked) [Compound I-244, (4-(3-(4-fluorophenyl)-1-methyl-1H-pyrazol-4-yl)pyridin-3-yl)methyl (1-(2-(2,4-difluorophenyl)-2-hydroxy-3-(1H-1,2,4-triazol-1-yl)propyl)piperidin-4-yl)carbamate] | 18.4 µM |  | 
17 | Cn1cc(-c2ccnc3c2C(=O)N(CC2CCN(CC(=O)OC(Cn4cncn4)(Cn4cncn4)c4ccc(F)cc4F)CC2)C3)c(-c2ccc(F)cc2)n1 [Compound I-249, 2-(2,4-difluorophenyl)-1,3-di(1H-1,2,4-triazol-1-yl)propan-2-yl 2-(4-((4-(3-(4-fluorophenyl)-1-methyl-1H-pyrazol-4-yl)-5-oxo-5,7-dihydro-6H-pyrrolo[3,4-b]pyridin-6-yl)methyl)piperidin-1-yl)acetate] | > 50 µM |  | 
18 | Cn1cc(-c2ccnc3c2C(=O)N(CCC2CCN(CC(O)(Cn4ccnn4)c4ccc(F)cc4F)CC2)C3)c(-c2ccc(F)cc2)n1 (centres unmarked) [Compound I-250] | > 50 µM |  | 
19 | O[C@@](CNCc1ccc2c(-c3ccncc3)c(-c3ccc(F)cc3)nn2c1)(Cn1cncn1)c1ccc(F)cc1F [Compound I-253, (S)-2-(2,4-difluorophenyl)-1-(((2-(4-fluorophenyl)-3-(pyridin-4-yl)pyrazolo[1,5-a]pyridin-6-yl)methyl)amino)-3-(1H-1,2,4-triazol-1-yl)propan-2-ol] |  | 5.95 nM | 0.137 µM (≈ 0.0761 µg/mL)
20 | OC(Cn1cncn1)(c1ccc(F)cc1F)C(F)(F)c1ccc(C#Cc2ccc(CNCc3ccc4c(-c5ccncc5)c(-c5ccc(F)cc5)nn4c3)cc2)cn1 (centres unmarked) [Compound I-267, 2-(2,4-difluorophenyl)-1,1-difluoro-1-(5-((4-((((2-(4-fluorophenyl)-3-(pyridin-4-yl)pyrazolo[1,5-a]pyridin-6-yl)methyl)amino)methyl)phenyl)ethynyl)pyridin-2-yl)-3-(1H-1,2,4-triazol-1-yl)propan-2-ol] | 8.03 µM |  | 
21 | OC(Cn1cnnn1)(c1ccc(F)cc1F)C(F)(F)c1ccc(-c2ccc(CNCc3ccc4c(-c5ccncc5)c(-c5ccc(F)cc5)nn4c3)cc2)cn1 (centres unmarked) [Compound I-269, 2-(2,4-difluorophenyl)-1,1-difluoro-1-(5-(4-((((2-(4-fluorophenyl)-3-(pyridin-4-yl)pyrazolo[1,5-a]pyridin-6-yl)methyl)amino)methyl)phenyl)pyridin-2-yl)-3-(1H-tetrazol-1-yl)propan-2-ol] | 3.67 µM |  | 
